Experimental findings from US20140066385A1, “METHOD FOR TREATING CANCER BY COMBINED USE OF DRUGS” (Astellas Pharma Inc., priority 2011, published 2014) are described below.

For the experiment, the system named is human hormone-resistant prostatic cancer (PC-3). The experiment in a line: Example 10: FK330 with docetaxel in PC-3 tumor-bearing mice. Type of experiment: in vivo, nude mice. Conditions: FK330 100 mg/kg bid p.o. + docetaxel 10 mg/kg/day i.v. (2 days each cycle). The protocol: The dose of FK330 is expressed in terms of the weight of a simple substance (non-hydrate). Docetaxel (a docetaxel hydrate injectable preparation (Taxotere (trademark), for intravenous infusion)) was purchased from Sanofi-Aventis SA, and was used as docetaxel.
FK330 was suspended (20 mg/mL) in a 0.5% aqueous methyl cellulose solution (0.5% MC), and was orally administered. Docetaxel was prepared to a concentration of 20 mg/mL with 95% ethanol, and then diluted to 1 mg/mL with physiological saline for injection (Otsuka Pharmaceutical Group) immediately before administration and intravenously administered through the tail vein.
Human hormone-resistant prostatic cancer-derived PC-3 (CRL-1435) was obtained from American Type Culture Collection (VA, USA). […]
The body weight and the tumor diameter, determined by using a digital caliper, were measured twice a week. The tumor volume was calculated from the calculation formula for ellipsoid volume of (major axis×[minor axis]^2×0.5).
The results are expressed as the mean value (Mean)±standard error (SEM). […] Using the actual measured values of the tumor volume at each measurement time point, an unpaired statistical test (Student's t-test) of the difference between two groups was carried out between a single administration group and a combined use group. […]

As to `O=C(/C=C/c1ccc(Cl)cc1)N[C@@H](Cc1ccccn1)C(=O)NCC(=O)N1CCC(Oc2cc(C(F)(F)F)ncn2)CC1` [FK330, N^2-[(2E)-3-(4-chlorophenyl)-2-propenoyl]-N-[2-oxo-2-(4-{[6-(trifluoromethyl)pyrimidin-4-yl]oxy}piperidin-1-yl)ethyl]-3-pyridin-2-yl-L-alaninamide], the “tumor volume reduction ratio compared with the docetaxel-only group” value is 49.3% (Day 27, P<0.062) and 42.0% (Day 51, P<0.05).
